Reference: BindingDB's records for patent US11964973 (Bristol-Myers Squibb, 2024)

Legend:
[1] = molecular target: Diacylglycerol kinase zeta (Homo sapiens, UniProt Q13574); assay: In Vitro DGK Inhibition Assay
Protocol: (§1) The DGKα and DGKζ reactions were performed using either extruded liposome (DGKα and DGKζ LIPGLO assays). […] Luminescence was recorded using an EnVision microplate reader.

[2] = molecular target: Diacylglycerol kinase alpha (Homo sapiens, UniProt P23743); assay: In Vitro DGK Inhibition Assay
Sequence of Diacylglycerol kinase alpha (P23743 whole entry): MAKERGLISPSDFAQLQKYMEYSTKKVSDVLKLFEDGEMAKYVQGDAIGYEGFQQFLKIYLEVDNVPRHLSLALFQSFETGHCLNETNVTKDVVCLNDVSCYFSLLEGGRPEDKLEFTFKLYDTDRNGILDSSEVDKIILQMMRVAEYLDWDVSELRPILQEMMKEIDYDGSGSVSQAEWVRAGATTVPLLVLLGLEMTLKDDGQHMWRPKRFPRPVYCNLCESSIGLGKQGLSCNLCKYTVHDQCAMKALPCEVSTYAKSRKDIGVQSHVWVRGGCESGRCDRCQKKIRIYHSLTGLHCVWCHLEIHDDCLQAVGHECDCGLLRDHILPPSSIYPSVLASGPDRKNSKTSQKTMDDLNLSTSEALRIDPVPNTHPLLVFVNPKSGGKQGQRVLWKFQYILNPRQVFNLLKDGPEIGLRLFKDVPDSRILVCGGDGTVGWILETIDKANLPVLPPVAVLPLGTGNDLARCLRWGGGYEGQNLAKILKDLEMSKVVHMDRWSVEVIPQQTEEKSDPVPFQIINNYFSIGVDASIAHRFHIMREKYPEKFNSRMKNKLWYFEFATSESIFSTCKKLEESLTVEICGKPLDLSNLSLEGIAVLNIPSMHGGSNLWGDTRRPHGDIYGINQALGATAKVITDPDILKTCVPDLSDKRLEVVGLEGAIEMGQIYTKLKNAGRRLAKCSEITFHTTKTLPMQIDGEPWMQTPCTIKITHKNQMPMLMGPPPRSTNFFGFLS
Protocol: as §1

Sequence of Diacylglycerol kinase zeta (Q13574 as listed by the source): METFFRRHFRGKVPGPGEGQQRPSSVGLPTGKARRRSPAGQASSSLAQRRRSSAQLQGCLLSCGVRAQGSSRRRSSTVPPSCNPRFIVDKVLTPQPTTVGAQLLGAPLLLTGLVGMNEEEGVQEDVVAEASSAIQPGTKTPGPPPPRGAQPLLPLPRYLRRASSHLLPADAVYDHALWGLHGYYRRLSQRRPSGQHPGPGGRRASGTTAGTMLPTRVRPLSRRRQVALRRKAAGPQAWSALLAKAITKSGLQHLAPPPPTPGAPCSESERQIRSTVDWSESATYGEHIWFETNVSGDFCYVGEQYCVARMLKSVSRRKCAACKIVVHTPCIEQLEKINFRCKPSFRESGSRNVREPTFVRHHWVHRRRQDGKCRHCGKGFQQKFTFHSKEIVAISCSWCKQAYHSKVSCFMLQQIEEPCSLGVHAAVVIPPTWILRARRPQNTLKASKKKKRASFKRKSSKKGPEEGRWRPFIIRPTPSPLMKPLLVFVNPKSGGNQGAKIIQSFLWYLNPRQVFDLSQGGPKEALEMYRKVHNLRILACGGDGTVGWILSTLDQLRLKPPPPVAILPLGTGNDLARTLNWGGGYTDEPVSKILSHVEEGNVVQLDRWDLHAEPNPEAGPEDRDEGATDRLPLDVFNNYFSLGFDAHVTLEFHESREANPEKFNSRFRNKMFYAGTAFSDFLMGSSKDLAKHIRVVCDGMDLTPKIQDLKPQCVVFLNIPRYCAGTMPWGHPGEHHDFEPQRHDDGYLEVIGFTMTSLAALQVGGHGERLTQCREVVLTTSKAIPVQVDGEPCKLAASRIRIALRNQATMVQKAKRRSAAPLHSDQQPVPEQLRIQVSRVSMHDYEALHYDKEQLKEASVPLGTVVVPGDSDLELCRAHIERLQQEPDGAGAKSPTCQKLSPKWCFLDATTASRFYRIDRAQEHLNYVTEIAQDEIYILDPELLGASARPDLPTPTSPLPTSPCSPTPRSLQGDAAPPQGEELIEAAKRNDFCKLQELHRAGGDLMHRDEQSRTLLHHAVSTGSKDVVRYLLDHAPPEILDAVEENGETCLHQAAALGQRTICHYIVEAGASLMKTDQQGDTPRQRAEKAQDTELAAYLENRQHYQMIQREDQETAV

For CCO[C@H]1CN(c2cc(=O)n(C)c3ccc(C#N)nc23)CC[C@@H]1Oc1ccc(OC(C)C)cn1 (relative stereo) [US11964973, Example 397], the IC50 [1] was 420 nM.
Cn1c(=O)cc(N2CCC(Oc3ccc(C(C)(C)C)cc3)CC2)c2cc(C#N)ccc21 [US11964973, Example 53] showed an IC50 [1] of 2000 nM and an IC50 [2] of 770 nM.
